Results on 84 compounds are retold here after PubChem BioAssay AID588780 (Sanford-Burnham Center for Chemical Genomics, 2011).

Calls of active or inactive are those of the source.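 How the source made its calls: active means compounds whose fitted half-maximal concentration in the cell-protection dose series is at or below a set limit; inactive means the rest.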

For the assay, the system named is H9c2 cardiomyocytes, 2-deoxyglucose stress, ATP luminescence, 2 h. As to the kind of experiment: protection of cardiomyocytes from 2-deoxyglucose injury, dose response, cell-based, 2-deoxyglucose stress, uHTS hits (AID 588780).
Usually IC50 stands for the midpoint of a concentration-inhibition curve. `O=C(COC(=O)CCc1nc2ccccc2c(=O)[nH]1)Nc1c(Cl)cccc1C(F)(F)F`: the IC50 is > 79 µM (inactive).
As for `O=C(NCC(=O)N(Cc1cccs1)C(C(=O)NC1CCCCC1)c1ccco1)c1cccs1` (centres undefined), the IC50 was 15.3 µM.
In the case of `CCOC(=O)C1CCN(C(c2cc3c(C)ccc(C)c3[nH]c2=O)c2nnnn2C2CCCCC2)CC1` (centres undefined), the IC50 is > 79 µM (inactive).
For `Cc1nc(OCc2ccccc2)c2ccccc2n1`, the IC50 was 9.43 µM.
On to `COc1ccc(NC(=O)N(CCCN(C)C)Cc2cc3cc(OC)ccc3[nH]c2=O)cc1`, for which the IC50 is > 79 µM (inactive).
`CCCN1C(=O)c2cc(C(=O)Nc3cccc(C(C)=O)c3)ccc2C1Nc1cccc(C(C)=O)c1` (centres undefined): the IC50 was 11.4 µM.
Regarding `COc1ccc(CCNC(=O)C(=O)NCC2CCCN2S(=O)(=O)c2cc(C)ccc2C)cc1` (centres undefined), the IC50 was > 79 µM (inactive).
As to `COc1ccc(-c2oc(=O)c3cc(OC)c(OC)cc3c2C#CCCO)cc1`, the IC50 was > 79 µM (inactive).
In the case of `CCOc1ccc(C(=O)Nc2cccc(-c3nc4cccnc4o3)c2)cc1Cl`, the IC50 was 32.2 µM (inactive).
Regarding `CCOC(=O)c1c(C)[nH]c(C(=O)COc2ccc3ccc(=O)oc3c2)c1C`, the IC50 was > 79 µM (inactive).
In the case of `O=C(/C=C\c1cn(-c2ccccc2)nc1-c1ccc2c(c1)OCCO2)N1CCOCC1`, the IC50 was > 79 µM (inactive).
As to `COc1cc(OC)cc(C(=O)NNC(=O)c2ccccn2)c1`, the IC50 was > 79 µM (inactive).
Turning to `CC(=O)Nc1ccc(NS(=O)(=O)c2cc(-c3n[nH]c(=O)c4ccccc34)ccc2C)cc1`, the IC50 was > 79 µM (inactive).
For `CC(OC(=O)Cc1n[nH]c(=O)c2ccccc12)C(=O)Nc1cc(Cl)cc(Cl)c1` (centres undefined), the IC50 was 22.7 µM.
Turning to `CCCCn1c(=NC(=O)c2cccnc2)c(C#N)cc2c(=O)n3cccc(C)c3nc21`, the IC50 was 33.6 µM (inactive).
With `Cc1ccc2nc(-c3ccccc3)cc(C(=O)NNC(=O)c3csc(N4CCOCC4)n3)c2c1` the figure was > 79 µM (inactive); with `CC(C)(C)C(=O)Nc1cccc(-c2nnc(-c3cccc(NC(=O)C(C)(C)C)c3)o2)c1`, > 79 µM (inactive).
Regarding `Cc1nn(-c2ccccc2)c(Cl)c1C(=O)NNC(=O)c1ccccc1O`, the IC50 is > 79 µM (inactive).
Under `COc1cccc(NC(=O)CN(C)C(=O)Cc2n[nH]c(=O)c3ccccc23)c1` stands > 79 µM (inactive).
Turning to `CN(C)S(=O)(=O)c1ccc(NC(=O)COC(=O)Cn2[nH]c(=O)c3ccccc3c2=O)cc1`, the IC50 was 9.56 µM.
For the compound `C1=C(c2ccccc2)CCN(c2nc3ccccc3n3cnnc23)C1`, the IC50 was 27.6 µM.
For the compound `COc1ccc(-c2cc(-c3nnc(COC(=O)C4CC4C)o3)c3ccccc3n2)cc1OC` (centres undefined), the IC50 was > 79 µM (inactive).
With `COc1ccc2[nH]c(=O)c(CN(Cc3ccco3)Cc3nnnn3Cc3ccccc3)cc2c1` the figure was > 79 µM (inactive); with `COc1ccccc1NC(=O)c1ccc(NC(=O)Cc2n[nH]c(=O)c3ccccc23)cc1`, > 79 µM (inactive); with `COC(=O)c1cccc(Nc2nc(-c3cccnc3)nc3ccccc23)c1`, > 79 µM (inactive).
`CCOc1ccc(NC(=O)c2cc3c(C)nc4ccccc4c3o2)cc1`: the IC50 was 17.1 µM.
For the compound `O=C(COC(=O)Cc1n[nH]c(=O)c2ccccc12)NNC(=O)c1ccc(Br)cc1`, the IC50 was > 79 µM (inactive).
Regarding `COc1ccccc1OCC(=O)Nc1cccc(-c2nnc(-c3ccco3)o2)c1`, the IC50 is > 79 µM (inactive).
Under `Cc1ccc(NC(=O)CCCc2nc3ccccc3c(=O)[nH]2)c(Cl)c1` stands 40 µM (inactive).
With `COc1cc2nc(Nc3ccc(F)cc3)nc(N)c2cc1OC` the figure was 42.9 µM (inactive).
In the case of `C[C@@H](OC(=O)c1[nH]cnc1C(=O)NCc1ccc(CNC(=O)OC(C)(C)C)cc1)c1ccccc1`, the IC50 was > 79 µM (inactive).
As for `N#Cc1c(-c2ccco2)cc(-c2ccccn2)nc1N`, the IC50 was 22.7 µM.
As to `O=C(c1cc(=O)[nH]c2ccccc12)N1CCN(S(=O)(=O)c2ccc3ccccc3c2)CC1`, the IC50 is 14.5 µM.
As to `COC(=O)c1cc2c(C)c(C)c3ccccn3c-2c1C(=O)OC`, the IC50 was > 79 µM (inactive).
On to `CCOc1ccc2[nH]c(=O)c(CN(CCO)C3(c4nnnn4C4CCCCC4)CCCCC3)cc2c1`, for which the IC50 was 35.1 µM (inactive).
In the case of `COc1cc(-c2cc(NC(C)=O)c3ncc(-c4ccccc4)n3c2)cc(OC)c1OC`, the IC50 is > 79 µM (inactive).
Under `COc1ccc(/C=N/NC(=O)c2sccc2OCc2ccc(F)cc2)cc1OC` stands 15.4 µM.
In the case of `COC(=O)c1c(C)[nH]c(O)c1C=Nc1ccc(Oc2ccccc2)cc1`, the IC50 is > 79 µM (inactive).
As for `Cc1ccc(C)c(S(=O)(=O)N(C(=O)c2ccncc2)c2ccc(OC(=O)c3ccncc3)cc2)c1`, the IC50 was > 79 µM (inactive).
For the compound `Cc1sc2nc(CSCC(=O)N(C)CC(=O)Nc3ccc(F)cc3)[nH]c(=O)c2c1C`, the IC50 was > 79 µM (inactive).
Turning to `COc1cc(C(=O)Nc2nc(-c3cccs3)cs2)cc(OC)c1OC`, the IC50 was 7.2 µM.
`CN1CCN(Cc2nc3ccccc3c(=O)[nH]2)CC1`: the IC50 is > 79 µM (inactive).
As to `Cc1ccc(CN(C(=O)CNC(=O)c2cccs2)C(C(=O)NCC2CCCO2)c2ccccc2)cc1` (centres undefined), the IC50 is 14.1 µM.
Turning to `Cc1cc2ccccc2c(=O)[nH]1`, the IC50 is 7.23 µM.
As for `COC(=O)/C=C/c1ccc(OC(=O)OC)c(OC(=O)OC)c1`, the IC50 is > 79 µM (inactive).
Regarding `Oc1ccc(Cl)cc1C=Nc1ccc(Br)cc1`, the IC50 is > 79 µM (inactive).
Regarding `COCCCn1c(C)nc2c(c1=O)c1nc3ccccc3nc1n2CCc1ccccc1`, the IC50 was > 79 µM (inactive).
For the compound `COc1ccc(OC)c(C(=O)COC(=O)c2ccc([N+](=O)[O-])o2)c1`, the IC50 was > 79 µM (inactive).
Turning to `COc1ccc(-c2cc(-c3nnc(COC(=O)C4CC4)o3)c3ccccc3n2)cc1OC`, the IC50 is 6.83 µM.
Regarding `COc1cc(-c2cc(NC=O)c3ncc(-c4cccc(C(F)(F)F)c4)n3c2)cc(OC)c1OC`, the IC50 was > 79 µM (inactive).
On to `O=C(CCc1nc2ccccc2c(=O)[nH]1)NNC(=O)c1ccccc1Cl`, for which the IC50 was > 79 µM (inactive).
Regarding `COc1cc(-c2cc(C(=O)Nc3cccc(C(C)=O)c3)c3ccccc3n2)cc(OC)c1OC`, the IC50 was > 79 µM (inactive).
On to `COCCn1ccc2c(OCC(=O)Nc3ccccc3OC)cccc2c1=O`, for which the IC50 was 20.8 µM.
`N#CC(c1nc2ccccc2nc1N1CCCC1)S(=O)(=O)c1cccs1` (centres undefined): the IC50 was 34.1 µM (inactive).
On to `COc1nc(N/N=C/c2cc3c(cc2Br)OCO3)nc(N2CCOCC2)n1`, for which the IC50 is 15.7 µM.
With `CCCCCCn1cnc2c(c1=O)c1nc3ccccc3nc1n2/N=C/c1ccco1` the figure was > 79 µM (inactive); with `COc1ccc(-c2oc3ncnc(NCCN4CCOCC4)c3c2-c2ccc(OC)cc2)cc1`, 34.3 µM (inactive).
Consider `CCOc1ccc(NC(=O)CN(C)C(=O)Cc2n[nH]c(=O)c3ccccc23)cc1OCC`, for which the IC50 was > 79 µM (inactive).
With `N#C/C(=C1\CCCN1)c1nc2ccccc2c(=O)[nH]1` the figure was > 79 µM (inactive); with `CCCc1cc2c(cc1NC(=O)c1ccc(Br)cc1)OCO2`, 29.3 µM; with `COc1cc(CCNc2ccc3nnc(-c4ccccc4)n3n2)cc(OC)c1OC`, 23.9 µM.
Consider `Cc1ccc(OCCOC(=O)CCc2nc3ccccc3c(=O)[nH]2)cc1`, for which the IC50 was > 79 µM (inactive).
Under `O=c1cc(CN2CCN(S(=O)(=O)c3cccc(Cl)c3)CC2)c2ccc(O)cc2o1` stands > 79 µM (inactive).
As to `C[C@@H](C(=O)Nc1nc(-c2ccccn2)cs1)N1C(=O)C2CCCCC2C1=O` (some centres undefined), the IC50 was > 79 µM (inactive).
Take `CC(C)[C@H](NC(=O)c1ccccc1Cl)C(=O)Nc1nc(-c2ccccn2)cs1`: the IC50 was > 79 µM (inactive).
On to `COc1cc(C(=O)N/N=C/c2ccc(OC(=O)c3cccc(C)c3)c(OC)c2)ccc1O`, for which the IC50 was > 79 µM (inactive).
`CC(C)Cn1c(N)c(C(=O)COC(=O)CCc2nc3ccccc3c(=O)[nH]2)c(=O)n(C)c1=O`: the IC50 is > 79 µM (inactive).
With `Cc1ccc(C)c(C(=O)COC(=O)Cn2[nH]c(=O)c3ccccc3c2=O)c1` the figure was > 79 µM (inactive); with `CCCn1c(=O)c2[nH]c(-c3ccc(OCC(=O)Nc4ccc(C#N)cc4)cc3)nc2n(CCC)c1=O`, > 79 µM (inactive).
In the case of `Cc1ccc2c(c1)CCCN2C(=O)CCc1nc2ccccc2c(=O)[nH]1`, the IC50 was 9.06 µM.
For `O=C(CCc1nc2ccccc2c(=O)[nH]1)NNC(=O)COc1cccc(F)c1`, the IC50 was > 79 µM (inactive).
On to `CCn1nc(C(=O)Nc2nc(-c3ccccn3)cs2)c2ccccc2c1=O`, for which the IC50 is > 79 µM (inactive).
On to `COc1ccc(CNC(=O)c2ccc(Cn3nc(C)c([N+](=O)[O-])c3C)o2)cc1`, for which the IC50 was > 79 µM (inactive).
Take `CCOC(=O)N1CCC(NC(=O)c2cc3c(-c4ccccc4F)nn(C)c3s2)CC1`: the IC50 was > 79 µM (inactive).
Consider `COc1ccc2oc(C(=O)Nc3ccc(N4CCOCC4)cc3)c(C)c2c1`, for which the IC50 was > 79 µM (inactive).
Take `COc1cccc(/C=N/Nc2ncnc3scc(-c4ccccc4)c23)c1OC`: the IC50 was > 79 µM (inactive).
Turning to `Cc1ccc(-c2n[nH]c(=O)c3ccccc23)cc1S(=O)(=O)NCCO`, the IC50 is 39.8 µM (inactive).
`COc1cccc(N2CC(C(=O)NCc3n[nH]c(=O)c4ccccc34)CC2=O)c1` (centres undefined): the IC50 is > 79 µM (inactive).
Under `Cc1cc(NC(=O)COc2nnc(-c3ccccc3)c3ccccc23)no1` stands > 79 µM (inactive); under `CCOc1cccc(Nc2cc3n(c(=O)n2)CCc2cc(OC)c(OC)cc2-3)c1`, 29.9 µM; under `O=C(CSc1nc2ccccc2o1)NCc1n[nH]c(=O)c2ccccc12`, 13.9 µM.
Consider `Clc1ccccc1-c1nc(N/N=C/c2cccnc2)c2ccccc2n1`, for which the IC50 is 8.37 µM.
`Cc1ccc2c(c1)nc1c3ccccc3nc(-c3ccccc3N)n21`: the IC50 was > 79 µM (inactive).
Turning to `COc1cccc(NC(=O)COc2cccc3c2CCNC3=O)c1`, the IC50 is 54.5 µM (inactive).
